# Test results taken from patent publication US12564547B2, “Compositions, formulations, and methods for skin treatment” (Oddity Labs, LLC, priority 2022, dated 2026).
# Test system: human dermal fibroblasts
# Assay: Human dermal fibroblast cells (hDFC) proliferation, cell viability assay (CellTiter-Glo, manual cell counting); note: test concentration or dose not given here
# Format: cell-based
# Conditions: hDFCs proliferation; control is DMSO
row,SMILES,Activity (Percent Increase Proliferation of hFDPCs (%))
1,"CC1(C)CC(C(N)=O)C(C)(C)N1 (stereo not shown) [VII-17, 2,2,5,5-tetramethylpyrrolidine-3-carboxamide]",D (increased proliferation of hFDPCs equals to or larger than 8%)
2,"CC(C)CC(=O)NC(C)c1ccccc1 (stereo not shown) [II-5, 3-methyl-N-(1-phenylethyl)butanamide]",D (increased proliferation of hFDPCs equals to or larger than 8%)
3,"C=CCn1c(SCC(=O)N2CCCCC2)nnc1-c1ccncc1 [I-6, 1-piperidin-1-yl-2-[(4-prop-2-enyl-5-pyridin-4-yl-1,2,4-triazol-3-yl)sulfanyl]ethanone]",C (increased proliferation of hFDPCs equals to or larger than 4% and less than 8%)
4,"CC1=NN(C=O)C(C)(C)C1 [VII-5, 3,5,5-trimethyl-4H-pyrazole-1-carbaldehyde]",D (increased proliferation of hFDPCs equals to or larger than 8%)
5,"CC(N)c1nnnn1C (stereo not shown) [VII-15, 1-(1-methyltetrazol-5-yl)ethanamine]",D (increased proliferation of hFDPCs equals to or larger than 8%)
6,"COc1ccc(CCCNC(=O)C(C)C)cc1 [II-6, N-[3-(4-methoxyphenyl)propyl]-2-methylpropanamide]",C (increased proliferation of hFDPCs equals to or larger than 4% and less than 8%)
7,"CCOC(OCC)OCC [VII-6, diethoxymethoxyethane]",D (increased proliferation of hFDPCs equals to or larger than 8%)
8,"CN1CCCNS1(=O)=O [VII-9, 2-methyl-1,2,6-thiadiazinane 1,1-dioxide]",D (increased proliferation of hFDPCs equals to or larger than 8%)
9,"CCN1C(=S)N(C)NC1(C)C [VII-1, 4-ethyl-2,5,5-trimethyl-1,2,4-triazolidine-3-thione]",D (increased proliferation of hFDPCs equals to or larger than 8%)
10,"O[C@H]1CCNC[C@]12CCCNC2 [VII-7, (5S,6R)-2,8-diazaspiro[5.5]undecan-5-ol]",D (increased proliferation of hFDPCs equals to or larger than 8%)
11,"CC(NC(=O)CNC(=O)c1cccs1)c1ccccc1 (stereo not shown) [VI-1, N-[2-oxo-2-(1-phenylethylamino)ethyl]thiophene-2-carboxamide]",D (increased proliferation of hFDPCs equals to or larger than 8%)
12,"CCN(CC)CC(=O)NC(C)c1ccccc1 (stereo not shown) [II-3, 2-(diethylamino)-N-(1-phenylethyl)acetamide]",A (increased proliferation of hFDPCs of less than 1%)
13,"CC(C)n1cnnc1 [VII-27, 4-propan-2-yl-1,2,4-triazole]",D (increased proliferation of hFDPCs equals to or larger than 8%)
14,"Cc1c(Br)c([N+](=O)[O-])nn1CC(=O)N1CCCCCC1 [VII-12, 1-(azepan-1-yl)-2-(4-bromo-5-methyl-3-nitropyrazol-1-yl)ethanone]",C (increased proliferation of hFDPCs equals to or larger than 4% and less than 8%)
15,"CCn1c(SCC(=O)N2CCCCCC2)nnc1-c1ccncc1 [I-5, 1-(azepan-1-yl)-2-[(4-ethyl-5-pyridin-4-yl-1,2,4-triazol-3-yl)sulfanyl]ethanone]",C (increased proliferation of hFDPCs equals to or larger than 4% and less than 8%)
16,"CCCNC(=O)CCNC(=O)C(C)Oc1ccc(OC)cc1 (stereo not shown) [VII-25, 2-(4-methoxyphenoxy)-N-[3-oxo-3-(propylamino)propyl]propanamide]",B (increased proliferation of hFDPCs equals to or larger than 1% and less than 4%)
17,"NC12CN3CN(CN(C3)C1)C2 [VII-4, 1,3,5-triazatricyclo[3.3.1.13,7]decan-7-amine]",D (increased proliferation of hFDPCs equals to or larger than 8%)
18,"NC(=O)C1CCCc2ccccc2N1 (stereo not shown) [VII-18, 2,3,4,5-tetrahydro-1H-1-benzazepine-2-carboxamide]",D (increased proliferation of hFDPCs equals to or larger than 8%)
19,"NN1CCNCC1 [VII-2, piperazin-1-amine]",D (increased proliferation of hFDPCs equals to or larger than 8%)
20,"CC(=O)NC1CCN(Cc2ccccc2N(C)C)CC1 [VII-20, N-[1-[[2-(dimethylamino)phenyl]methyl]piperidin-4-yl]acetamide]",D (increased proliferation of hFDPCs equals to or larger than 8%)
21,"COC(=O)Cn1c(=O)[nH]c2ccccc2c1=O [V-4, methyl 2-(2,4-dioxo-1H-quinazolin-3-yl)acetate]",A (increased proliferation of hFDPCs of less than 1%)
22,"Cn1c(SCC(=O)N2CCCCC2)nnc1-c1ccccc1 [I-7, 2-[(4-methyl-5-phenyl-1,2,4-triazol-3-yl)sulfanyl]-1-piperidin-1-ylethanone]",B (increased proliferation of hFDPCs equals to or larger than 1% and less than 4%)

row,SMILES,Activity (Percent Increase Proliferation of hFDPCs (%))
1,"O=C(O)CN1CCC(NC(=O)C2CCCc3c2[nH]c2ccccc32)CC1 (stereo not shown) [IV-5, 2-[4-(2,3,4,9-tetrahydro-1H-carbazole-1-carbonylamino)piperidin-1-yl]acetic acid]",D (increased proliferation of hFDPCs equals to or larger than 8%)
2,"NC1CSCC1O (stereo not shown) [VII-3, 4-aminothiolan-3-ol]",D (increased proliferation of hFDPCs equals to or larger than 8%)
3,"CCNC(=O)CCSc1nc(C)cc(C)n1 [VII-19, 3-(4,6-dimethylpyrimidin-2-yl)sulfanyl-N-ethylpropanamide]",C (increased proliferation of hFDPCs equals to or larger than 4% and less than 8%)
4,"CC1CNCCN1 (stereo not shown) [VII-8, 2-methylpiperazine]",D (increased proliferation of hFDPCs equals to or larger than 8%)
5,"O=C(CSc1nnc(SCC(=O)N2CCCC2)s1)N1CCCC1 [VII-35, 2-[[5-(2-oxo-2-pyrrolidin-1-ylethyl)sulfanyl-1,3,4-thiadiazol-2-yl]sulfanyl]-1-pyrrolidin-1-ylethanone]",C (increased proliferation of hFDPCs equals to or larger than 4% and less than 8%)
6,"CN(C)CCCn1c(=O)[nH]c2ccccc2c1=O [V-2, 3-[3-(dimethylamino)propyl]-1H-quinazoline-2,4-dione]",A (increased proliferation of hFDPCs of less than 1%)
7,"Nn1c(SCC(=O)N2CCCC2)nnc1C1CCCCC1 [I-4, 2-[(4-amino-5-cyclohexyl-1,2,4-triazol-3-yl)sulfanyl]-1-pyrrolidin-1-ylethanone]",C (increased proliferation of hFDPCs equals to or larger than 4% and less than 8%)
8,"COc1ccc(C(=O)NC(C(=O)NC(C)Cn2ccnc2)C(C)C)cc1 (stereo not shown) [III-5, N-[1-(1-imidazol-1-ylpropan-2-ylamino)-3-methyl-1-oxobutan-2-yl]-4-methoxybenzamide]",B (increased proliferation of hFDPCs equals to or larger than 1% and less than 4%)
9,"COc1ccc(CNC(=O)C(=O)NCCCn2ccnc2)cc1 [III-2, N-(3-imidazol-1-ylpropyl)-N′-[(4-methoxyphenyl)methyl]oxamide]",D (increased proliferation of hFDPCs equals to or larger than 8%)
10,"COc1ccccc1CN1CCNC(=O)C1CC(=O)N(C)C (stereo not shown) [VII-22, 2-[1-[(2-methoxyphenyl)methyl]-3-oxopiperazin-2-yl]-N,N-dimethylacetamide]",D (increased proliferation of hFDPCs equals to or larger than 8%)
11,"Cn1nnnc1SCC(=O)N1CCCCC1 [VII-37, 2-(1-methyltetrazol-5-yl)sulfanyl-1-piperidin-1-ylethanone]",C (increased proliferation of hFDPCs equals to or larger than 4% and less than 8%)
12,"CCC(N)Cn1ccnc1 (stereo not shown) [VII-29, 1-imidazol-1-ylbutan-2-amine]",A (increased proliferation of hFDPCs of less than 1%)
13,"COc1ccc(CNC(=O)C(=O)NC(C)c2ccccc2)cc1 (stereo not shown) [III-3, N-[(4-methoxyphenyl)methyl]-N′-(1-phenylethyl)oxamide]",B (increased proliferation of hFDPCs equals to or larger than 1% and less than 4%)
14,"CN(C)CCn1c(=O)[nH]c2ccccc2c1=O [V-3, 3-[2-(dimethylamino)ethyl]-1H-quinazoline-2,4-dione]",A (increased proliferation of hFDPCs of less than 1%)
15,"COCCN(CCCc1ccccc1)C(=O)NC(C)Cn1ccnc1 (stereo not shown) [VII-31, 3-(1-imidazol-1-ylpropan-2-yl)-1-(2-methoxyethyl)-1-(3-phenylpropyl)urea]",A (increased proliferation of hFDPCs of less than 1%)
16,"CN(C)c1ccccc1CN1CCN(C(=O)N2CCOCC2)CC1 [VII-23, [4-[[2-(dimethylamino)phenyl]methyl]piperazin-1-yl]-morpholin-4-ylmethanone]",D (increased proliferation of hFDPCs equals to or larger than 8%)
17,"CCC(=O)NC(C)c1ccccc1 (stereo not shown) [II-4, N-(1-phenylethyl)propanamide]",C (increased proliferation of hFDPCs equals to or larger than 4% and less than 8%)
18,"CCCC(=O)NCc1ccc(OC)cc1 [II-2, N-[(4-methoxyphenyl)methyl]butanamide]",B (increased proliferation of hFDPCs equals to or larger than 1% and less than 4%)
19,"Nn1c(SCC(=O)N2CCCCC2)nnc1-c1ccccc1 [I-2, 2-[(4-amino-5-phenyl-1,2,4-triazol-3-yl)sulfanyl]-1-piperidin-1-ylethanone]",B (increased proliferation of hFDPCs equals to or larger than 1% and less than 4%)
20,"CN(C)c1ccccc1CN1CCCCC1C(=O)O (stereo not shown) [VII-16, 1-[[2-(dimethylamino)phenyl]methyl]piperidine-2-carboxylic acid]",D (increased proliferation of hFDPCs equals to or larger than 8%)
21,"O=C(O)CNC(=O)c1ccc2[nH]c3c(c2c1)CCCC3 [IV-6, 2-(6,7,8,9-tetrahydro-5H-carbazole-3-carbonylamino)acetic acid]",B (increased proliferation of hFDPCs equals to or larger than 1% and less than 4%)
